ChEMBL document CHEMBL1152951, “Tabernines A-C, beta-carbolines from the leaves of Tabernaemontana elegans” (J Nat Prod, 2009)

Tests used:
L5178Y [1] = assay: Antiproliferative activity against multidrug resistant mouse L5178Y cells expressing human MDR1 after 72 hrs by MTT assay; assay type: functional; conditions: read-out: ID50 (the source's name)
[2] = target: T1, ATP-dependent translocase ABCB1 (Homo sapiens, UniProt P08183); assay: Reversal of human MDR1-mediated multidrug resistance in mouse L5178Y cells expressing MDR1 assessed as fluorescence activity ratio at 20 uM after 10 mins by rhodamine-123 exclusion test; assay type: cell-based
[3] = target: T1, ATP-dependent translocase ABCB1; assay: Reversal of human MDR1-mediated multidrug resistance in mouse L5178Y cells expressing MDR1 assessed as fluorescence activity ratio at 2 uM after 10 mins by rhodamine-123 exclusion test; assay type: cell-based
[4] = target: T1, ATP-dependent translocase ABCB1; assay: Reversal of human MDR1-mediated multidrug resistance in mouse L5178Y cells expressing MDR1 assessed as mean fluorescence intensity of rhodamine-123 uptake at 20 uM after 10 mins by flow cytometry; assay type: cell-based
[5] = target: T1, ATP-dependent translocase ABCB1; assay: Reversal of human MDR1-mediated multidrug resistance in mouse L5178Y cells expressing MDR1 assessed as mean fluorescence intensity of rhodamine-123 uptake at 2 uM after 10 mins by flow cytometry; assay type: cell-based
L5178Y [6] = assay: Antiproliferative activity against mouse L5178Y cells after 72 hrs by MTT assay; assay type: functional; conditions: read-out: ID50 (the source's name)
[7] = target: T1, ATP-dependent translocase ABCB1; conditions: l5178y, 10 min, 22.2 µM
Description: Reversal of human MDR1-mediated multidrug resistance in mouse L5178Y cells expressing MDR1 assessed as mean fluorescence intensity of rhodamine-123 uptake at 22.2 uM after 10 mins by flow cytometry

T1 sequence (P08183 whole entry): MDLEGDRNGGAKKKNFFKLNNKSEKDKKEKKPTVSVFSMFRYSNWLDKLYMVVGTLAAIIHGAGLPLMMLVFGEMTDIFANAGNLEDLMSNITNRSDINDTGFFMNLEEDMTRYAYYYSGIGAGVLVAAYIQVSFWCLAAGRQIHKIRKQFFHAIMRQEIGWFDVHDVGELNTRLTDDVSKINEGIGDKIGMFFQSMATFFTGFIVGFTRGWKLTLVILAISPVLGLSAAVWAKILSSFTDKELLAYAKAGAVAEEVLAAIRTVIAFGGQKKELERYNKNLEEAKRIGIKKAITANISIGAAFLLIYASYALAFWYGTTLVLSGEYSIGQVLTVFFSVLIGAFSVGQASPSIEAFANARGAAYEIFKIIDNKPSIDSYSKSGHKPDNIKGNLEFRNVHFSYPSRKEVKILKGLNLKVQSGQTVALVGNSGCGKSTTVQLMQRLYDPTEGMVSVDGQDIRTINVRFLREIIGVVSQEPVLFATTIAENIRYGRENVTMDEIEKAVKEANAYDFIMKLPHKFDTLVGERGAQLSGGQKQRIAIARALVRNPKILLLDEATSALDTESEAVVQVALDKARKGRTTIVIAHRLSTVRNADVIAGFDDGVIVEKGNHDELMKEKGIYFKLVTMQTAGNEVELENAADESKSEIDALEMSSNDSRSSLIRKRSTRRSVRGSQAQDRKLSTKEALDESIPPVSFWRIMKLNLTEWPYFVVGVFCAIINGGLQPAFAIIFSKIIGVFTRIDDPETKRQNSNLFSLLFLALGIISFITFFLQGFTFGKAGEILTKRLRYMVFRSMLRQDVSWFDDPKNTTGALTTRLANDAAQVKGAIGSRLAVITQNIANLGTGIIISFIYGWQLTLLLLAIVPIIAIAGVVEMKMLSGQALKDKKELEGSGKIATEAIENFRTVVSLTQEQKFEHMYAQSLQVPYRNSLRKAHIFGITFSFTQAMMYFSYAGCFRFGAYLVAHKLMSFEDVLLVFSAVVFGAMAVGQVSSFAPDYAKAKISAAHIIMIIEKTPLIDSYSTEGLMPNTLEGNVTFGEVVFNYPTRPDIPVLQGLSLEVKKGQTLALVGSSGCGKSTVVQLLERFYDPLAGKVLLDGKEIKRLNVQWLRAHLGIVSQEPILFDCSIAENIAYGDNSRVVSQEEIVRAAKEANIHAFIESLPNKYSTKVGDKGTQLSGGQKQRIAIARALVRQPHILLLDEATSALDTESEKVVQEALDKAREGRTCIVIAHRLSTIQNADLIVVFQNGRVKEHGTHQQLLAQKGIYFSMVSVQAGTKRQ

Structure (SMILES) | IC50 (L5178Y [1]) [µM] | Ratio [2] | Ratio [3] | Flu intensity [4] | Flu intensity [5] | IC50 (L5178Y [6]) [µM] | Activity [4] | Activity [5] | Flu intensity [7]
Cc1cc2c([n-]c3ccccc32)c2[n+]1C(C)NCC2 (centres undefined) [TABERNINE A] | 37.5 | 1.73 | 0.72 | 18.5 | 7.7 | 45.9 | – | – | –
Cc1cc2c3ccccc3n3c2c(n1)CCNC3C (centres undefined) [TEBERNINE B] | 39.7 | 0.99 | 0.78 | – | – | 46.6 | 10.7 | 8.9 | –
Cc1cc2c([nH]c3ccccc32)c(CCN)n1 [TEBERNINE C] | 51.5 | 1.43 | 0.79 | – | – | 70.6 | 15.3 | 8.4 | –
COc1ccc(CCN(C)CCCC(C#N)(c2ccc(OC)c(OC)c2)C(C)C)cc1OC (centres undefined) [VERAPAMIL] | – | – | – | – | – | – | – | – | 98.9
